# Measurements as given in patent US8822503B2, “2-pyridone compounds” (Taisho Pharmaceutical Co., Ltd, priority 2009, dated 2014).
# Biological target: T1, human liver GK (Homo sapiens, UniProt P35557)
# T1 construct: GST (glutathione S-transferase) (N); made in house; host or cells: E. coli
# T1 sequence (P35557 1-466 isoform P35557-2): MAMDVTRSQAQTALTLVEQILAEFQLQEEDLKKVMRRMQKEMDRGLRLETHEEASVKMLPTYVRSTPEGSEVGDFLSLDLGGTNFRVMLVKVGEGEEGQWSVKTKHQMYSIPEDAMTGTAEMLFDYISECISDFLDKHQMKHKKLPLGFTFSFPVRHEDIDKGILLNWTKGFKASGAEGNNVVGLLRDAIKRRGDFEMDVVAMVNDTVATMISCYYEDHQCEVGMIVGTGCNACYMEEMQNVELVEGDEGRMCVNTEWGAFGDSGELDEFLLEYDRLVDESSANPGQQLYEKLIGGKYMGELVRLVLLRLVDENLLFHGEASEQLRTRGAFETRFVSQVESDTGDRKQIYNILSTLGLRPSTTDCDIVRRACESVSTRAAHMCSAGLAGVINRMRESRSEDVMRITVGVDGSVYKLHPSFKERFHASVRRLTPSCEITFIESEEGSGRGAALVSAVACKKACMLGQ
# Test: GK activation test
# Assay type: biochemical
# Details: test compound concentration needed to activate 50% of maximum activation ability; 4 mM 14C-labeled glucose, 2 mM ATP, room temperature, 20 minutes
# Method: The GK activation test for the test compounds was performed by the method of Irwin A. Rose et al. (J. Biol. Chem. 1964 January; 239:12-7) with partial modifications.
# The enzyme source used in this assay, human liver GK, was expressed in E. coli as a fusion protein with GST (glutathione S-transferase) added to the amino terminus and was purified using Glutathione Sepharose 4B (Amersham Biosciences).
# The test was carried out using flat-bottom 96-well plates (Sumitomo Bakelite Co., Ltd.). A solution of the test compound in dimethyl sulfoxide (DMSO) and DMSO as a control were added to each well of the plates at a final DMSO concentration of 1%. 25 mM Hepes-KOH (pH=7.1), 25 mM KCl, 2 mM MgCl2, 2 mM ATP, 4 mM ^14C-labeled glucose (Muromachi Yakuhin) and 1 mM DTT (dithiothreitol) were further added at the indicated final concentrations, respectively. Finally, human liver GK was added at 0.24 microgram per well and the reaction was started. The reaction was carried out at room temperature.
# After 20 minutes, AG1-X4 resin (BioRad) suspended in 25 mM Hepes-KOH (pH=7.1) was added and the reaction product, labeled glucose 6-phosphate, was allowed to bind thereto. The whole volume was transferred to MultiScreen plates (Millipore) and the resin was washed with water. Thereafter, the labeled glucose 6-phosphate binding to the resin was eluted with a 0.5 M NaCl solution. The labeling activity of the eluted labeled glucose 6-phosphate was measured as an index of GK activity.
# The GK activity maximally activated by the test compound was described as maximum activation ability, and the test compound concentration needed to activate 50% of that ability was described as EC50.
row,EC50 [µM],SMILES
1,0.5 to 3,"O=C1CC[C@H](CC(c2ccc(C(F)(F)F)cc2)c2ccc(C3CC3)c(=O)[nH]2)N1 (single isomer, unassigned) [Example 4-248]"
2,3 to 10,"O=C1CC[C@H](CC(c2ccc(C(F)(F)F)cc2)c2ccc(C3CC3)c(=O)[nH]2)N1 (single isomer, unassigned) [Example 4-249]"
3,0.5 to 3,"O=C1CC[C@H](CC(c2ccc(O)c(Cl)c2)c2ccc(C3CC3)c(=O)[nH]2)N1 (single isomer, unassigned) [Example 4-250]"
4,3 to 10,"O=C1CC[C@H](CC(c2ccc(O)c(Cl)c2)c2ccc(C3CC3)c(=O)[nH]2)N1 (single isomer, unassigned) [Example 4-251]"
5,0.5 to 3,"O=C1CC[C@H](CC(c2ccc(Cl)cc2)c2ccc(C3CC3)c(=O)[nH]2)N1 (single isomer, unassigned) [Example 4-252]"
6,0.01 to 0.5,"O=C1CC[C@H](CC(c2ccc(C(F)(F)F)c(Cl)c2)c2ccc(C3CC3)c(=O)[nH]2)N1 (single isomer, unassigned) [Example 4-254]"
7,3 to 10,"O=C1CC[C@H](CC(c2ccc(C(F)(F)F)c(Cl)c2)c2ccc(C3CC3)c(=O)[nH]2)N1 (single isomer, unassigned) [Example 4-255]"
8,0.5 to 3,"Cc1ccc(C(C[C@H]2CCC(=O)N2)c2ccc(C3CC3)c(=O)[nH]2)cc1 (single isomer, unassigned) [Example 4-294]"
9,0.5 to 3,"CC(C)Oc1ccc(C(C[C@H]2CCC(=O)N2)c2ccc(Cl)c(=O)[nH]2)cc1Cl (single isomer, unassigned) [Example 4-296]"
10,3 to 10,"CC(C)Oc1ccc(C(C[C@H]2CCC(=O)N2)c2ccc(Cl)c(=O)[nH]2)cc1Cl (single isomer, unassigned) [Example 4-297]"
11,0.01 to 0.5,"Cc1cc(C(C[C@H]2CCC(=O)N2)c2ccc(C3CC3)c(=O)[nH]2)ccc1S(=O)(=O)C1CC1 (single isomer, unassigned) [Example 4-298]"
12,3 to 10,"Cc1cc(C(C[C@H]2CCC(=O)N2)c2ccc(C3CC3)c(=O)[nH]2)ccc1S(=O)(=O)C1CC1 (single isomer, unassigned) [Example 4-299]"
13,0.01 to 0.5,"CCc1ccc(C(C[C@H]2CCC(=O)N2)c2ccc(C3CC3)c(=O)[nH]2)cc1 (single isomer, unassigned) [Example 4-302]"
14,3 to 10,"CCc1ccc(C(C[C@H]2CCC(=O)N2)c2ccc(C3CC3)c(=O)[nH]2)cc1 (single isomer, unassigned) [Example 4-303]"
15,0.01 to 0.5,"O=C1CC[C@H](CC(c2ccc(S(=O)(=O)C3CC3)c(Cl)c2)c2ccc(Cl)c(=O)[nH]2)N1 (single isomer, unassigned) [Example 4-304]"
16,3 to 10,"O=C1CC[C@H](CC(c2ccc(S(=O)(=O)C3CC3)c(Cl)c2)c2ccc(Cl)c(=O)[nH]2)N1 (single isomer, unassigned) [Example 4-305]"
17,0.01 to 0.5,"O=C1CC[C@H](CC(c2ccc(S(=O)(=O)C3CC3)cc2)c2ccc(C3CC3)c(=O)[nH]2)N1 (single isomer, unassigned) [Example 4-306]"
18,3 to 10,"O=C1CC[C@H](CC(c2ccc(S(=O)(=O)C3CC3)cc2)c2ccc(C3CC3)c(=O)[nH]2)N1 (single isomer, unassigned) [Example 4-307]"
19,0.5 to 3,"CCc1ccc(C(C[C@H]2CCC(=O)N2)c2ccc(Cl)c(=O)[nH]2)cc1 (single isomer, unassigned) [Example 4-308]"
20,3 to 10,"CCc1ccc(C(C[C@H]2CCC(=O)N2)c2ccc(Cl)c(=O)[nH]2)cc1 (single isomer, unassigned) [Example 4-309]"
21,0.5 to 3,"Cc1ccc(C(C[C@H]2CCC(=O)N2)c2ccc(Cl)c(=O)[nH]2)cc1Cl (single isomer, unassigned) [Example 4-310]"
22,3 to 10,"Cc1ccc(C(C[C@H]2CCC(=O)N2)c2ccc(Cl)c(=O)[nH]2)cc1Cl (single isomer, unassigned) [Example 4-311]"
23,0.5 to 3,"CCCc1ccc(C(C[C@H]2CCC(=O)N2)c2ccc(Cl)c(=O)[nH]2)cc1 (single isomer, unassigned) [Example 4-312]"

row,EC50 [µM],SMILES
1,0.5 to 3,"CC(C)(C)c1ccc(C(C[C@H]2CCC(=O)N2)c2ccc(C(F)(F)F)c(=O)[nH]2)cc1 (single isomer, unassigned) [Example 4-314]"
2,3 to 10,"CC(C)(C)c1ccc(C(C[C@H]2CCC(=O)N2)c2ccc(C(F)(F)F)c(=O)[nH]2)cc1 (single isomer, unassigned) [Example 4-315]"
3,3 to 10,"O=C1CC[C@H](CC(c2ccc(C3CC3)cc2)c2ccc(Cl)c(=O)[nH]2)N1 (single isomer, unassigned) [Example 4-316]"
4,0.5 to 3,"O=C1CC[C@H](CC(c2ccc(C3CC3)cc2)c2ccc(Cl)c(=O)[nH]2)N1 (single isomer, unassigned) [Example 4-317]"
5,3 to 10,"Cc1ccc(C(C[C@H]2CCC(=O)N2)c2ccc(Cl)c(=O)[nH]2)cc1 (single isomer, unassigned) [Example 4-318]"
6,0.01 to 0.5,"CC(C)c1ccc(C(C[C@H]2CCC(=O)N2)c2ccc(C3CC3)c(=O)[nH]2)cc1Cl (single isomer, unassigned) [Example 4-320]"
7,0.5 to 3,"CC(C)c1ccc(C(C[C@H]2CCC(=O)N2)c2ccc(C3CC3)c(=O)[nH]2)cc1Cl (single isomer, unassigned) [Example 4-321]"
8,0.01 to 0.5,"CC(C)Oc1ccc(C(C[C@H]2CCC(=O)N2)c2ccc(C3CC3)c(=O)[nH]2)cc1Cl (single isomer, unassigned) [Example 4-322]"
9,3 to 10,"CC(C)Oc1ccc(C(C[C@H]2CCC(=O)N2)c2ccc(C3CC3)c(=O)[nH]2)cc1Cl (single isomer, unassigned) [Example 4-323]"
10,0.5 to 3,"CCc1ccc(C(C[C@H]2CCC(=O)N2)c2ccc(Cl)c(=O)[nH]2)cc1Cl (single isomer, unassigned) [Example 4-324]"
11,3 to 10,"CCc1ccc(C(C[C@H]2CCC(=O)N2)c2ccc(Cl)c(=O)[nH]2)cc1Cl (single isomer, unassigned) [Example 4-325]"
12,0.01 to 0.5,"COc1ccc(C(C[C@H]2CCC(=O)N2)c2ccc(C3CC3)c(=O)[nH]2)cc1Cl (single isomer, unassigned) [Example 4-326]"
13,3 to 10,"COc1ccc(C(C[C@H]2CCC(=O)N2)c2ccc(C3CC3)c(=O)[nH]2)cc1Cl (single isomer, unassigned) [Example 4-327]"
14,0.5 to 3,"CCOc1ccc(C(C[C@H]2CCC(=O)N2)c2ccc(C3CC3)c(=O)[nH]2)cc1 (single isomer, unassigned) [Example 4-328]"
15,0.5 to 3,"Cc1cc(C(C[C@H]2CCC(=O)N2)c2ccc(C3CC3)c(=O)[nH]2)ccc1C(F)(F)F (single isomer, unassigned) [Example 4-330]"
16,3 to 10,"Cc1cc(C(C[C@H]2CCC(=O)N2)c2ccc(C3CC3)c(=O)[nH]2)ccc1C(F)(F)F (single isomer, unassigned) [Example 4-331]"
17,0.5 to 3,"O=C1CC[C@H](CC(c2ccc(C3CC3)c(=O)[nH]2)c2ccc(C(F)(F)F)cc2F)N1 (single isomer, unassigned) [Example 4-332]"
18,3 to 10,"O=C1CC[C@H](CC(c2ccc(C3CC3)c(=O)[nH]2)c2ccc(C(F)(F)F)cc2F)N1 (single isomer, unassigned) [Example 4-333]"
19,0.5 to 3,"O=C1CC[C@H](CC(c2ccc(C3CC3)c(=O)[nH]2)c2ccc(Cl)cc2F)N1 (single isomer, unassigned) [Example 4-334]"
20,3 to 10,"O=C1CC[C@H](CC(c2ccc(C3CC3)c(=O)[nH]2)c2ccc(Cl)cc2F)N1 (single isomer, unassigned) [Example 4-335]"
21,0.01 to 0.5,"CCc1ccc(C(C[C@H]2CCC(=O)N2)c2ccc(C3CC3)c(=O)[nH]2)cc1Cl (single isomer, unassigned) [Example 4-336]"
22,0.5 to 3,"CCc1ccc(C(C[C@H]2CCC(=O)N2)c2ccc(C3CC3)c(=O)[nH]2)cc1Cl (single isomer, unassigned) [Example 4-337]"
23,0.5 to 3,"COCCCc1ccc(C(C[C@H]2CCC(=O)N2)c2ccc(Cl)c(=O)[nH]2)cc1 (single isomer, unassigned) [Example 4-338]"
